Experimental data as given in patent US12435091B2, “RNA-binding protein multimerization inhibitors and methods of use thereof” (THE UAB RESEARCH FOUNDATION, priority 2020, dated 2025).
Like-named read-outs stand apart in the source and are kept apart here.

What was measured:
[1] = Log D at pH 7.4; format: physicochemical
Description: Selected compounds were assessed for their aqueous solubility, Log D and mouse and human liver microsomal stability.

[2] = system: LN229 glioma cell line; assay: PrestoBlue cell viability assay; format: cell-based; settings: Homo sapiens, LN-229; LN229, 48 hours of treatment
Description: (§1) PrestoBlue cell viability reagent (ThermoFisher Scientific; Waltham, MA) was used for cell viability assays. The inhibitory dose-response data were normalized to the control (treatment with vehicle); the inhibitory dose-response curves, which were fitted by using Boltzmann equation, and the corresponding IC50s were generated by using OriginPro software (OriginLab Corporation, CA).
(§2) The glioma suppressive potentials of the new class of HuR multimerization inhibitors were evaluated by utilizing SRI-41664 and SRI-42127 compounds in several cell-based assays. First, it was confirmed that the SRI-41664 and SRI-42127 compounds are cytotoxic for established and PDGx cell lines. FIG. 5A illustrates the inhibitory dose responses of SRI-41664 and SRI-42127 compounds in the established U251, LN229, and the PDGx XD456 glioma cell lines. […] An HuR-overexpression approach was employed to confirm SRI-42127 inhibitory potency against HuR dimerization.

[3] = system: PDGx XD456 glioma cell line; assay: PrestoBlue cell viability assay; format: cell-based
Description: as §1, §2

[4] = system: U251 glioma cell line; assay: PrestoBlue cell viability assay; format: cell-based; settings: Homo sapiens, U-251, 48 h
Description: as §1, §2

[5] = system: JX12p neurospheres, HuR mRNA targets; assay: Illumina global RNA-sequencing of PDGx neurospheres; format: cell-based; settings: 3 uM, 12 hours, compared to control
Description: Illumina global RNA-sequencing data were generated by utilizing PDGx neurospheres, which have been treated with a compound as described herein (e.g., SRI-42127, 3 uM) for 12 hours or with vehicle as the control. RNA was isolated by using TRIzol reagent (Invitrogen; Carlsbad, CA). The RNA samples were processed.
RNA sequencing was performed on PDGx-derived glioma neurospheres representing the different molecular subtypes (classical, neuronal, and mesenchymal) after treatment with vehicle (control) or SRI-42127 (3 uM) for 12 hours. Analysis of direct HuR mRNA targets and their corresponding cell signaling pathways was performed. Table 9 illustrates the evaluated gene sets, representing direct HuR mRNA targets, and their corresponding cell signaling pathways.
The analysis of direct HuR mRNA targets and their corresponding cell signaling pathways has been performed by using gene sets, which have been defined as the direct HuR targets following tumor neurosphere treatment with DHTS, an established modulator of HuR/mRNA interaction (Lal et al., Nucleic Acid Research, 2017). […] Data are represented as average+standard deviation (Aver+SD). The significance was evaluated by using Student t-test.
The analysis was generated based on RNA-Seq data.

[6] = system: HuR; assay: HuR localization (N/C ratio) in LPS-stimulated cultured astrocytes; format: cell-based; settings: 0.5 μM for 24 hours
Description: First, the effect of SRI-42127 on HuR localization in astrocytes was studied. […] Quantification of the N/C HuR ratio using methodology described with microglia was 2.0. With LPS stimulation, there was translocation of HuR to the cytoplasm consistent with astrocyte activation and the N/C ratio decreased to 0.4 (P<0.001). When cells were treated with SRI-42127, this ratio was reversed back to pre-stimulation value (1.9). These findings indicate that SRI-42127 blocks cytoplasmic translocation of HuR in activated astrocytes.

[7] = system: LPS-induced neuroinflammatory response in the CNS; assay: in vivo LPS mouse model of neuroinflammation; set-up: species or system mice
Description: Administration of LPS intraperitoneally produces an acute neuroinflammatory response in the CNS including activation of microglia with production of inflammatory cytokines and chemokines. This model was used to test the effect of SRI-42127 on attenuating the neuroinflammatory response.
Mice were injected with LPS intraperitoneally (i.p.) and then given SRI-42127 at 15 mg/kg (or vehicle) i.p. starting at 30 min post LPS injection and then three subsequent doses at 6 hours, 12 hours, and 18 hours. Brains were harvested at 24 hours for analysis. To determine the impact of SRI-42127 on HuR localization in microglia in the brain, sections from the hippocampus from 3 vehicle control and 3 SRI-42127 treated mice were examined. Tissue sections were stained with IBA1 and HuR. Quantification methods for HuR localization were similar to immunocytochemistry. Briefly, IBA1+ cells were identified and the outline of the cell was traced with Fiji software. Nuclei were localized by DAPI staining. Nuclear and cytoplasmic HuR immunofluorescence was quantitated to calculate a N/C ratio. In vehicle-treated animals, there was translocation of HuR into the cytoplasm as indicated by a merged yellow signal whereas in SRI-42127 treated mice, there was little to no merged signal. Next, 20-30 IBA1+ cells from sections in 3 control and 3 treated mice were assessed. A 2-fold increase in the N/C ratio of mice treated with SRI-42127 was observed, confirming the effect of the drug as shown in FIG. 18 (bottom).
Next, the activation state of microglia was studied by measuring IBA1 intensity. Sections from the hippocampal region were stained with IBA1 and fluorescence intensity was measured using Fiji software from 5 sections of 3 mice per group. The reviewer was blinded to the identity of the samples.
Finally, the impact of SRI-42127 on infiltration of neutrophils and monocytes into the brain after LPS administration i.p. was assessed. Microglial HuR knockout (KO) mice were also assessed. […]

[8] = 15 mg/kg i.p., all brain regions at 24 hours

Structure (SMILES): CN(c1ccc2ncc(-c3ccc4cn[nH]c4c3)n2n1)C1CCOCC1 [Compound 19]
- logD [1]: 3.1
- IC50 [2]: 3.2 ± 0.6 µM
- IC50 ([3]; Glioma cell, XD456, 48 hours of treatment): 4 ± 0.6 µM
- increase of IC50 for inhibition of cell viability ([3]; XD456, enhancement of HuR-dimer formation approximately by two-fold, 48 hours): 1.9±0.2 fold
- IC50 ([4]; U251, 48 hours of treatment, read-out: IC50 cell viability): 2.8 ± 0.6 µM
- IC50 ([4]; U251 with dox-inducible HuR-dimerization reporters, after enhancement of HuR-dimer formation by two fold, 48 hours, read-out: IC50 for inhibition of cell viability): 8 ± 0.8 µM
- IC50 ([4]; U251 with dox-inducible HuR-dimerization reporters, before enhancement of HuR-dimer formation, 48 hours, read-out: IC50 for inhibition of cell viability): 2.8 ± 0.4 µM
- gene set average value, Activation of BH3-only proteins Homo sapiens_R-HSA-114452 [5]: 0.90
- gene set average value, Cell Cycle Check points_Homo Sapiens_R-HSA-69620 [5]: 0.58
- gene set average value, Cell Cycle, Mitotic_Homo Sapiens_R-HSA-69278 [5]: 0.58
- gene set average value, Cell Cycle_Homo sapiens_R-HSA-1640170 [5]: 0.57
- gene set average value, Cell cycle_Homo Sapiens_hsa04110 [5]: 0.64
- gene set average value, Cellular Senescence_Homo sapiens_R-HSA-2559583 [5]: 0.74
- gene set average value, Cellular responses to Stress_Homo sapiens_R-HSA-2262752 [5]: 0.61
- gene set average value, Deadenylation-dependent mRNA decay_Homo sapiens_R-HSA-429914 [5]: 0.71
- gene set average value, Developmental Biology_Homo sapiens_R-HSA-1266738 [5]: 0.52
- gene set average value, Epstein-Barr virus Infection_Homo Sapiens_hsa05169 [5]: 0.63
- gene set average value, G2/M Check points_Homo sapiens_R-HSA-69481 [5]: 0.60
- gene set average value, G2/M DNA damage Checkpoint_Homo sapiens_R-HSA-69473 [5]: 0.61
- gene set average value, Gene Expression_Homo Sapiens_R-HSA-2559583 [5]: 0.78
- gene set average value, HTLV-1 infection_Homo Sapiens_hsa05186 [5]: 0.67
- gene set average value, Intrinsic Pathway for Apoptosis_Homo sapiens_R-HSA-109606 [5]: 0.90
- gene set average value, MAPK signaling Pathway_Homo Sapiens_hsa04010 [5]: 0.63
- gene set average value, Membrane Trafficking_Homo sapiens_R-HAS-199991 [5]: 0.62
- gene set average value, Mitotic G1-G1/S phases_Homo sapiens_R-HSA-453279 [5]: 0.58
- gene set average value, P53 signaling pathway_Homo Sapiens_hsa04115 [5]: 1.21
- gene set average value, RHO GTPases Activate Formins_Homo sapiens_R-HSA-5663220 [5]: 0.48
- gene set average value, RHO GTPases Effectors_Homo sapiens_R-HSA-195258 [5]: 0.50
- gene set average value, RNA degradation_Homo Sapiens_hsa03018 [5]: 0.78
- gene set average value, Regulation of TP53 Activity through Phosphorylation_Homo sapiens_R-HSA-6804756 [5]: 0.63
- gene set average value, Regulation of TP53 Activity_Homo sapiens_R-HSA-109606 [5]: 0.89
- gene set average value, Signaling by Rho GTPases_Homo sapiens_R-HSA-194315 [5]: 0.49
- gene set average value, TP53 Regulates Metabolic Genes_Homo sapiens_R-HSA-5628897 [5]: 0.87
- gene set average value, Transcriptional Regulation by TP53_Homo sapiens_R-HSA-3700989 [5]: 0.93
- gene set average value, Translocation of GLUT4 to the plasma membrane_Homo sapiens_R-HSA-1445148 [5]: 0.71
- N/C HuR ratio [6]: 1.9
- increase in the HuR N/C ratio in microglia ([7]; 15 mg/kg i.p. at 30 min, 6, 12 and 18 hours post LPS, hippocampus at 24 hours): 2 fold
- attenuation of infiltrating monocytes [7, 8]: 1.3- to 2 fold
- attenuation of infiltrating neutrophils [7, 8]: 2 to 3 fold
